Like-named read-outs stand apart in the source and are kept apart here.
Key:
human GPR55 = biological target: T1, human GPR55 (Homo sapiens, UniProt Q9Y2T6); test: β-Arrestin PathHunter assay, recombinant CHO cells expressing GPR55; format: cell-based; conditions: for Human GPR55 % activation / Human GPR55 % inhibition: value in parentheses; for Human GPR55 % inhibition: antagonist mode versus LPI 1 µM
T1 construct: host or cells: CHO cells
Method: (§1) β-Arrestin assays were performed in recombinant CHO cells expressing either the human GPR18 or the human GPR55 as described before using the β-galactosidase enzyme fragment complementation technology (β-arrestin PathHunter™ assay; DiscoverX, Fremont, CA, USA).
(§2) The orphan receptors GPR18 and GPR55 can interact with certain natural and synthetic cannabinoids. […] Therefore, we investigated the new series of indole, indazole, benzimidazole and carbazole-derived structures in β-arrestin assays at GPR18 and GPR55 (Table 2). […] For the lipophilic substitutions, the following rank order of potency was observed: ethyl > methyl > chloro > fluoro. Therefore, it can be concluded that a lipophilic substitution in position 4 of the naphthyl residue was a requirement for GPR55 inhibition.

human GPR18 = biological target: T2, human GPR18 (Homo sapiens, UniProt Q14330); test: β-Arrestin PathHunter assay, recombinant CHO cells expressing GPR18; format: cell-based; conditions: for Human GPR18 % activation / Human GPR18 % inhibition: value in parentheses
T2 construct: host or cells: CHO cells
T2 sequence (Q14330 1-331): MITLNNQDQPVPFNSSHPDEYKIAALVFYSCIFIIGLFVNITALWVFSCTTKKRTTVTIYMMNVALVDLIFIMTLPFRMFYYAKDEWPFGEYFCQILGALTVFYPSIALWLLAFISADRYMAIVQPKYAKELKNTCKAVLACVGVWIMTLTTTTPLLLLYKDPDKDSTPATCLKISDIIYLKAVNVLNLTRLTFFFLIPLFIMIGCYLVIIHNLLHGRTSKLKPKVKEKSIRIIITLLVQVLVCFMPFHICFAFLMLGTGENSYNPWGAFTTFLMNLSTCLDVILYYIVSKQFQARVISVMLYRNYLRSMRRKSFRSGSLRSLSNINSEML
Method: as §1, §2

human CB2 receptor = biological target: T3, human CB2 receptor (Homo sapiens, UniProt P34972); test: biochemical; format: binding; conditions: [3H]CP55,940 0.1 nM, CHO cell membranes; read-out: Ki ± SEM Human CB2
T3 construct: expressed in transfected cells; host or cells: CHO cells (membrane preparations)
T3 sequence (P34972 whole entry): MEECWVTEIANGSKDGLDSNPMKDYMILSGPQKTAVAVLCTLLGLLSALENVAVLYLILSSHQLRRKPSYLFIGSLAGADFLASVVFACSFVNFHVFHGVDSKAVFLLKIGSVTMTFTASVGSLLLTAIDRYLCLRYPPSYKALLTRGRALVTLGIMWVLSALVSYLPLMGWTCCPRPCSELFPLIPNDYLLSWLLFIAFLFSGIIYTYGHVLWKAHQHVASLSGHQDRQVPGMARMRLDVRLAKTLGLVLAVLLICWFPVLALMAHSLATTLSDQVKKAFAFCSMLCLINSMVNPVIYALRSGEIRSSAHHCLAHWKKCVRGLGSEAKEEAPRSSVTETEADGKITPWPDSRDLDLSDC

human CB1 receptor = biological target: T4, human CB1 receptor (Homo sapiens, UniProt P21554); test: biochemical; format: binding; conditions: [3H]CP55,940 0.1 nM, CHO cell membranes; read-out: Ki ± SEM Human CB1
T4 construct: expressed in transfected cells; host or cells: CHO cells (membrane preparations)
T4 sequence (P21554 whole entry): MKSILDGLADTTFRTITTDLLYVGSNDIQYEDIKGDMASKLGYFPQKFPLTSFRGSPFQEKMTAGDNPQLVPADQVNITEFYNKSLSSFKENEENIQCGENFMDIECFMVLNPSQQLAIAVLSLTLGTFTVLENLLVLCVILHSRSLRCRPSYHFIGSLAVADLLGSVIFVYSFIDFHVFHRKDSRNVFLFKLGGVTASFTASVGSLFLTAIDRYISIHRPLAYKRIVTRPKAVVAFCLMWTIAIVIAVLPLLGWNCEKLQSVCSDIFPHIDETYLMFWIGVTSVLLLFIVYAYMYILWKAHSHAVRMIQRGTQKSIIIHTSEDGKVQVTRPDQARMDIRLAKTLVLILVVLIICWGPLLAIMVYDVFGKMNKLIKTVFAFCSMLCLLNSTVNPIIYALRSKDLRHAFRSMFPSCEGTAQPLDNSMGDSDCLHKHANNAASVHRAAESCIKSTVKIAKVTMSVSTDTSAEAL

CB2 receptor = conditions: membrane potential assay, cited from earlier work
CB1 receptor = conditions: membrane potential assay, cited from earlier work

T1 sequence (Q9Y2T6 whole entry): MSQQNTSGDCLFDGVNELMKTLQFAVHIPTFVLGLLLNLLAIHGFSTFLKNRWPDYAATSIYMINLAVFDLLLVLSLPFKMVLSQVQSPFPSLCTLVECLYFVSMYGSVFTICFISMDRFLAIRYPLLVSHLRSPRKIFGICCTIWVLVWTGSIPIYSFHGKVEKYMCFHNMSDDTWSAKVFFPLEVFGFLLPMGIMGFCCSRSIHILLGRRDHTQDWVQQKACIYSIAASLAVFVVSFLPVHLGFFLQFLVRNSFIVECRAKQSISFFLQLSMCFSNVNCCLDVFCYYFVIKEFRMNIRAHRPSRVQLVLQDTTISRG

Row | SMILES | EC50 (human GPR55) [µM] | IC50 (human GPR55) [µM] | Human GPR55 % activation (human GPR55; agonist mode) | EC50 (human GPR18) [µM] | IC50 (human GPR18) [µM] | Human GPR18 % activation (human GPR18; agonist mode) [%] | Ki (human CB2 receptor) [nM] | Ki (human CB1 receptor) [nM] | Human GPR55 % inhibition (human GPR55) [%] | Human GPR18 % inhibition (human GPR18; antagonist mode) | EC50 (CB2 receptor; ref Banister et al. [38]) [nM] | EC50 (CB1 receptor; ref Banister et al. [38]) [nM] | EC50 (CB2 receptor; ref Banister et al. [42]) [nM] | EC50 (CB1 receptor; ref Banister et al. [42]) [nM] | EC50 (human GPR55; agonist mode, read-out: Human GPR55 EC50) [µM] | IC50 (human GPR55; antagonist mode versus lysophosphatidylinositol (LPI, 1 µM), read-out: Human GPR55 IC50) [µM] | EC50 (human GPR18; agonist mode, read-out: Human GPR18 EC50) [µM] | IC50 (human GPR18; antagonist mode, read-out: Human GPR18 IC50) [µM]
1 | CC[C@H](C)[C@H](NC(=O)c1nn(CCCCCF)c2ccccc12)C(N)=O (single isomer, unassigned; isomer 2) [compound 26, 5F-ADB-PINACA-isomer 2] | > 10 | > 10 | 2% | > 10 | > 10 | 8 | 4.28 ± 2.86 | 3.1 ± 1.53 |  |  |  |  |  |  |  |  |  | 
2 | O=C(Nc1cccc2ccccc12)c1cn(Cc2ccc(F)cc2)c2ccccc12 [compound 4, FDU-NNEI] | > 10 | > 10 | 13% | > 10 | > 10 | 20 | 64 ± 15 | 7.42 ± 2.51 | 2 |  |  |  |  |  |  |  |  | 
3 | CCCCCn1cc(C(=O)N[C@H](C(=O)OC)C(C)C)c2ccccc21 [compound 5, MMB-018] | > 10 | > 10 | 5% | > 10 | > 10 | 13 | 14 ± 0.8 | 15.1 ± 5.9 | 5 |  |  |  |  |  |  |  |  | 
4 | CCCCCn1nc(C(=O)N[C@H](C(=O)OC)C(C)C)c2ccccc21 [compound 6, AMB] | > 10 | > 10 | 15% | > 10 | > 10 | 42 | 0.973 ± 0.104 | 0.866 ± 0.057 | 28 | 15% |  |  |  |  |  |  |  | 
5 | COC(=O)[C@@H](NC(=O)c1cn(CCCCCF)c2ccccc12)C(C)C [compound 7, MMB-2201] | > 10 | > 10 | 5% | > 10 | > 10 | 2 | 19.8 ± 4.2 | 15.2 ± 5 |  |  |  |  |  |  |  |  |  | 
6 | COC(=O)[C@@H](NC(=O)c1nn(CCCCCF)c2ccccc12)C(C)C [compound 8, 5F-AMB] | > 10 | > 10 | 14% | > 10 | > 10 | 1 | 1.38 ± 0.22 | 1.13 ± 0.48 |  |  | 10 | 1.9 |  |  |  |  |  | 
7 | COC(=O)[C@@H](NC(=O)c1nn(Cc2ccc(F)cc2)c2ccccc12)C(C)C [compound 9, FUB-AMB] | > 10 | > 10 | 4% | > 10 | > 10 |  | 0.536 ± 0.115 | 0.387 ± 0.135 | 17 | 11% | 18 | 2 |  |  |  |  |  | 
8 | COC(=O)[C@@H](NC(=O)c1nn(CC2CCCCC2)c2ccccc12)C(C)C [compound 10] | > 10 | > 10 | 2% | > 10 | > 10 | 19 | 0.301 ± 0.092 | 0.339 ± 0.073 | 31 | > 10 (10%) | 29 | 5.1 |  |  |  |  |  | 
9 | COC(=O)[C@@H](NC(=O)c1cn(CC2CCCCC2)c2ccccc12)C(C)(C)C [compound 13, MDMB-CHMICA] | > 10 | > 10 | 5% | > 10 | 14.1 ± 3.1 | 5 | 0.354 ± 0.05 | 0.41 ± 0.141 | 38 |  | 71 | 10 |  |  |  |  |  | 
10 | COC(=O)[C@@H](NC(=O)c1nn(CC2CCCCC2)c2ccccc12)C(C)(C)C [compound 14] | > 10 | 10.3 ± 1.7 |  | > 10 | ~10 | 27 | 0.222 ± 0.034 | 0.135 ± 0.028 |  | 51% | 128 | 10 |  |  |  |  |  | 
11 | CC(C)[C@H](NC(=O)c1cn(CCCCCF)c2ccccc12)C(N)=O [compound 15, 5F-AB-PICA] | > 10 | > 10 | > 10 (10%) | > 10 | > 10 | 23 | 89 ± 33.2 | 35 ± 7.7 |  |  |  |  | 8.9 | 5.2 |  |  |  | 
12 | CC(C)[C@H](NC(=O)c1nn(CCCCCCl)c2ccccc12)C(N)=O [compound 17, 5Cl-AB-PINACA] | > 10 | > 10 | 17% | > 10 | > 10 | 4 | 12 ± 1.7 | 4.06 ± 1.95 |  | 0% |  |  |  |  |  |  |  | 
13 | CC(C)(C)[C@H](NC(=O)c1cn(CC2CCCCC2)c2ccccc12)C(N)=O [compound 22, ADB-CHMICA] | > 10 | > 10 | 17% | > 10 | > 10 | 8 | 0.628 ± 0.231 | 1.24 ± 0.36 | 8 | 14% |  |  |  |  |  |  |  | 
14 | CC(C)(C)[C@H](NC(=O)c1nn(Cc2ccc(F)cc2)c2ccccc12)C(N)=O [compound 24, ADB-FUBINACA] | > 10 | > 10 | 7% | > 10 | > 10 | 7 | 0.339 ± 0.059 |  |  | 16% |  |  | 3.5 | 1.2 |  |  |  | 
15 | CC(C)(C)[C@H](NC(=O)c1nn(CC2CCCCC2)c2ccccc12)C(N)=O [compound 25] | > 10 | > 10 | 16% | > 10 | > 10 | 6 | 0.331 ± 0.048 | 0.333 ± 0.059 |  | > 10 (10%) |  |  |  |  |  |  |  | 
16 | NC(=O)[C@H](Cc1ccccc1)NC(=O)c1cn(CCCCCF)c2ccccc12 [compound 27, PX-1] | > 10 | > 10 | 6% | > 10 | > 10 | 15 | 164 ± 17 | 485 ± 117 | 1 |  |  |  |  |  |  |  |  | 
17 | NC(=O)[C@H](Cc1ccccc1)NC(=O)c1nn(CCCCCF)c2ccccc12 [compound 28, PX-2] | > 10 | > 10 | 16% | > 10 | > 10 |  | 17.4 ± 1.4 | 127 ± 43 |  | 15% |  |  |  |  |  |  |  | 
18 | COC(=O)[C@@H](OC(=O)c1nn(CC2CCCCC2)c2ccccc12)C(C)(C)C [compound 34] | > 10 | 9.29 ± 1.7 | 1% | > 10 | 12.6 ± 3.5 | 0 | 1.11 ± 0.14 | 10.4 ± 7.4 |  |  |  |  |  |  |  |  |  | 
19 | O=C(c1cccc2ccccc12)c1cn(Cc2ccc(F)cc2)c2ccccc12 [compound 35, FUB-JWH-018] | > 10 | > 10 | 7% | > 10 | > 10 | 20 | 1.34 ± 0.48 | 3.27 ± 1.76 | 30 | 30% |  |  |  |  |  |  |  | 
20 | O=C(c1ccc(F)c2ccccc12)c1cn(CCCCCF)c2ccccc12 [compound 36, F-2201] | > 10 | 22.1 ± 12.2 |  | > 10 | > 10 | 18 | 1.89 ± 0.57 | 0.852 ± 0.192 |  | 14% |  |  |  |  |  |  |  | 
21 | O=C(c1ccc(Cl)c2ccccc12)c1cn(CCCCCF)c2ccccc12 [compound 37, Cl-2201] | > 10 | 7.12 ± 1.26 |  | > 10 | > 10 | 16 | 1.18 ± 0.19 | 0.772 ± 0.101 |  | 4% |  |  |  |  |  |  |  | 
22 | CCCCCn1c2ccccc2c2cc(C(=O)c3cccc4ccccc34)ccc21 [compound 39, EG-018] |  |  | 0% |  |  | 2 | 2.27 ± 0.38 |  | 1 |  |  |  |  |  | > 10 | > 10 | > 10 | > 10

Reference: paper PMC6002460, “Pharmacological evaluation of new constituents of “Spice”: synthetic cannabinoids based on indole, indazole, benzimidazole and carbazole scaffolds” (Forensic Toxicology, 2018)
